Laboratory results taken from article PMC4519859, “Synthesis and Biological Evaluation of Novel Dehydroabietic Acid Derivatives Conjugated with Acyl-Thiourea Peptide Moiety as Antitumor Agents” (International Journal of Molecular Sciences, 2015).

Columns and labels:
HeLa cells [1] = experiment: Hoechst 33258 staining; type: cell-based, human; conditions: 10 μM, 12 and 24 h
Procedure: Hoechst 33258 which stains the cell nucleus, is a membrane permeable dye with blue fluorescence. Live cells with uniformly light blue nuclei were obviously detected under the fluorescence microscope after treatment with Hoechst 33258 whereas apoptotic cells had bright blue nuclei due to karyopyknosis and chromatin condensation. However, the nuclei of dead cells could not be stained. HeLa cells treated with compound 9n at 10 μM from 12 to 24 h were stained with Hoechst 33258. HeLa cells not treated with compound 9n were used as control for 24 h.
General procedure for Hoechst 33258 staining: cells grown on a sterile cover slip in six-well tissue culture plates were treated with compounds for a certain range of time. The culture medium containing compounds was removed, and the cells were fixed in 4% paraformaldehyde for 10 min. After being washed twice with PBS, the cells were stained with 0.5 mL of Hoechst 33258 (Beyotime, Jiangsu, China) for 5 min and then again washed twice with PBS. The stained nuclei were observed under a Nikon ECLIPSETE2000-S fluorescence microscope using 350 nm excitation and 460 nm emission.

HeLa cells [2] = experiment: ROS generation assay (DCF-DA); type: cell-based, human; conditions: 10, 15 μM, 12 h
Source text: Mitochondria have also been implicated as a source of ROS during apoptosis. […] We herein studied whether the loss of mitochondrial transmembrane potential resulting in the generation of ROS measured as described in our previous papers , using the fluorescent probe 2,7-dichlorofluorescein diacetate (DCF-DA) determined by fluorescence microscopy. […] Calcium has long been recognized as a significant participant in cell apoptosis. Therefore, we investigated whether compound 9n inducing cell death was involved in the production of Ca^2+. To investigate the effect of compound 9n on calcium release, HeLa cells treated with compound 9n at 10 μM for 24 h were loaded with the Ca^2+ indicator Fluo-3-acetoxymethyl-ester (Fluo-3/AM, 5 µM; Beyotime, Jiangsu, China).

SK-OV-3 = experiment: MTT cytotoxicity assay, SK-OV-3; type: cell-based; conditions: Homo sapiens, 48 h, mean ± SD, three independent experiments
Procedure: (§1) The in vitro cytotoxic potency of DHAA acyl-thiourea derivatives 8a–8o and 9a–9o were evaluated by 3-(4,5-dimethylthiazol-2-yl)-2,5-diphenyltetrazolium bromide (MTT) assay against HeLa, SK-OV-3 and MGC-803 tumor cell lines, with 5-FU as the positive control.
(§2) General procedure for cytotoxic evaluation in vitro: HeLa, HepG2, SK-OV-3 and MGC-803 cells were seeded into 96-well microculture plates and allowed to adhere for 24 h, respectively. After cells were exposed to compounds at concentrations from 100 to 0.01 μM for 48 h, medium was aspirated and replenished with complete medium. IC50 was evaluated by MTT tetrazolium dye assay. Each experiment was performed three times; Statistical analysis: All statistical analysis was performed with SPSS Version 10 (SPSS, Chicago, IL, USA). Data was analyzed by one-way ANOVA. Mean separations were performed using the least significant difference method. Each experiment was replicated thrice, and all experiments yielded similar results. Measurements from all the replicates were combined, and treatment effects were analyzed.

HeLa cells [3] = experiment: TUNEL assay; type: cell-based, human; conditions: 10 μM, 12 and 24 h
Procedure: To further define the mechanism of cell death caused by compound 9n, HeLa cells were treated with compound 9n at 10 μM from 12 to 24 h and the DNA fragmentation was measured by the TUNEL assay. TUNEL (terminal-deoxynucleotidyl transferase meditated nick end labeling) is a common method for identifying apoptotic cells in situ by detecting DNA fragmentation. When the genomic DNA is broken, the exposed 3ʹ-OH at the end of deoxynucleotide transfer as the catalytic plus green fluorescent probes fluorescein (FITC) labeled dUTP, which can be detected by fluorescence microscopy or flow cytometry, as indicated by a green color (in the web version). The results are illustrated in Figure 4. […] The results were in good agreement with the previous experiments.
The TUNEL method was performed to label the 3′-end of fragmented DNA of the apoptotic HeLa cells. The cells treated as indicated were fixed with 4% paraformaldehyde phosphate buffer saline, rinsed with PBS, then permeabilized by 0.1% Triton X-100 for FITC end-labeling the fragmented DNA of the apoptotic HeLa cells using TUNEL cell (Beyotime, Jiangsu, China) apoptosis detection kit. The FITC-labeled TUNEL-positive cells were imaged under a fluorescent microscopy by using 488 nm excitation and 530 nm emission.

HeLa = experiment: MTT cytotoxicity assay, HeLa; type: cell-based; conditions: Homo sapiens, 48 h, mean ± SD, three independent experiments
Procedure: as §1, §2

HeLa cells [4] = experiment: Annexin V/PI apoptosis flow cytometry; type: cell-based, human; conditions: 12 h, control 1.521%
Procedure: Annexin V/PI staining was performed to distinguish apoptotic and necrotic cell deaths. The apoptosis ratios induced by compound 9n in HeLa cells were quantitatively determined by flow cytometry (Figure 5). […] Apoptosis ratios (including the early and late apoptosis ratios) for compound 9n were obtained after 12 h of treatment at the concentration of 10 and 15 μM. The apoptosis of HeLa cells treated with target compound 9n increased gradually in a concentration manner. […] The results illustrated that target compound 9n suppressed cell proliferation by inducing apoptosis.
General procedure apoptosis ratios: Prepared HeLa cells (1 × 10^6 cells/mL) were washed twice with cold PBS and then re-suspended gently in 500 μL of binding buffer. Thereafter, cells were stained in 5 μL of Annexin V-FITC and shaken well. Finally, the cells were mixed with 5 μL of PI, incubated for 20 min in the dark and subsequently analyzed using FACSCalibur (Becton Dickinson, Franklin Lakes, NJ, USA).

## CC(C)c1ccc2c(c1)CCC1[C@](C)(C(=O)NC(=S)N[C@H](Cc3ccccc3)C(=O)Nc3ccccn3)CCC[C@]21C (stereo partly drawn) [Compound 9n, (1R,4aS)-7-Isopropyl-1,4a-dimethyl-N-(((R)-1-oxo-3-phenyl-1-(pyridin-2-ylamino)propan-2-yl)carbamothioyl)-1,2,3,4,4a,9,10,10a-octahydrophenanthrene-1-carboxamide]
HeLa cells [1]
  apoptosis by Hoechst 33258 staining: typical apoptotic morphology
HeLa cells [2]
  ROS level: induced an increase of the ROS level
SK-OV-3
  IC50: 19.6 ± 1.87 µM
HeLa cells [3]
  DNA fragmentation by TUNEL: significantly induced apoptosis
HeLa
  IC50: 6.58 ± 1.11 µM
HeLa cells [4]; 10 μM
  apoptosis ratio (early and late): 21.11%
HeLa cells [4]; 15 μM
  apoptosis ratio (early and late): 42.75%
